Key:
Test in all cases: relative viability (nuclei count vs DMSO), 5 days (fraction); higher = more cells survive
Tosedostat + Bortezomib = compound: CC(C)C[C@@H](C(=O)N[C@H](C(=O)OC1CCCC1)c1ccccc1)[C@H](O)C(=O)NO [Tosedostat] + CC(C)C[C@H](NC(=O)[C@H](Cc1ccccc1)NC(=O)c1cnccn1)B(O)O [Bortezomib] (partner 0.002 µM)
In short: (§1)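 The day after seeding in 1536-well plates, lung cancer cell lines were treated by pin tool with a single drug, or with a fixed anchor-drug dose together with five library-drug doses (not always all listed) in √10 steps. After 5 days, a combined fix-and-stain solution (final 0.05% Triton X-100, 1% formaldehyde, 1 ug/ml Hoechst) was added. Nuclei counted on 4× images gave relative viability as treated counts over vehicle counts, reported as the median of duplicate plates.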

[1] = compound: CC1=NN=C(O1)C2=NN=C(C=C2)N3CCC(CC3)OC4=C(C=CC(=C4)F)Cl + CC(C)C[C@H](NC(=O)[C@H](Cc1ccccc1)NC(=O)c1cnccn1)B(O)O [Bortezomib] (partner 0.002 µM)
In short: as §1

[2] = compound: CC1=NN=C(O1)C2=NN=C(C=C2)N3CCC(CC3)OC4=C(C=CC(=C4)F)Cl + NC(=O)Nc1cc(-c2cccc(F)c2)sc1C(=O)N[C@H]1CCCNC1 [AZD7762] (partner 0.2 µM)
In short: as §1

Tosedostat + Crizotinib = compound: CC(C)C[C@@H](C(=O)N[C@H](C(=O)OC1CCCC1)c1ccccc1)[C@H](O)C(=O)NO [Tosedostat] + C[C@@H](Oc1cc(-c2cnn(C3CCNCC3)c2)cnc1N)c1c(Cl)ccc(F)c1Cl [Crizotinib] (partner 1 µM)
In short: as §1

Cell Line	relative viability (Tosedostat + Bortezomib; first compound 0.02 µM)	relative viability (Tosedostat + Bortezomib; first compound 0.06325 µM)	relative viability (Tosedostat + Bortezomib; first compound 0.2 µM)	relative viability (Tosedostat + Bortezomib; first compound 0.6325 µM)	relative viability (Tosedostat + Bortezomib; first compound 2 µM)	relative viability ([1]; first compound 0.253 µM)	relative viability ([1]; first compound 0.8 µM)	relative viability ([1]; first compound 2.53 µM)	relative viability ([1]; first compound 8 µM)	relative viability ([2]; first compound 0.253 µM)	relative viability ([2]; first compound 0.8 µM)	relative viability ([2]; first compound 2.53 µM)	relative viability ([2]; first compound 8 µM)	relative viability (Tosedostat + Crizotinib; first compound 0.02 µM)	relative viability (Tosedostat + Crizotinib; first compound 0.06325 µM)	relative viability (Tosedostat + Crizotinib; first compound 0.2 µM)	relative viability (Tosedostat + Crizotinib; first compound 0.6325 µM)	relative viability (Tosedostat + Crizotinib; first compound 2 µM)
HCC-44	0.886	0.883	0.937	0.793	0.459	0.449	0.43	0.398	0.431	0.388	0.609	0.495	0.452	0.861	0.755	0.759	0.741	0.492
HCC-78	0.496	0.497	0.473	0.555	0.563	0.326	0.403	0.393	0.363	0.457	0.483	0.463	0.373	0.298	0.337	0.324	0.371	0.391
NCI-H1437	0.465	0.512	0.488	0.524	0.324	0.31	0.342	0.424	0.342	0.726	0.851	0.93	0.848	0.941	0.988	1.03	0.914	0.895
NCI-H2347	1.25	1.36	1.35	1.05	0.694	0.611	0.8	0.898	0.799	0.56	0.572	0.637	0.489	0.818	0.666	0.676	0.747	0.771
BEN	0.973	1.08	0.827	0.908	0.728	0.726	0.771	0.932	0.719	0.681	0.752	0.878	0.729	0.894	0.875	0.818	1.02	0.956
LCLC-103H	1.1	0.947	1.05	1.25	1.06	0.69	0.829	0.744	0.675	0.62	0.657	0.633	0.631	1.09	1.03	1.06	1.13	1.02
EKVX	0.974	0.995	1.03	0.946	0.823	0.368	0.301	0.357	0.418	0.517	0.434	0.465	0.535	0.763	0.842	0.921	0.807	0.789
ABC-1	0.289	0.344	0.328	0.274	0.306	0.26	0.314	0.237	0.267	0.852	0.712	0.597	0.45	1.15	0.868	1.02	0.83	0.631
PC-3 [JPC-3]	0.819	0.771	0.823	0.776	0.552	0.519	0.614	0.726	0.666	0.702	0.602	0.728	0.914	1	0.885	0.998	0.942	0.665
NCI-H1703	0.447	0.297	0.235	0.221	0.301	0.304	0.278	0.222	0.218	0.097	0.129	0.153	0.0983	1.15	0.643	0.548	0.38	0.597
NCI-H23	1.11	0.959	0.846	0.687	0.463	0.948	–	0.894	0.838	0.191	0.192	0.288	0.206	0.504	0.494	0.442	0.341	0.206
LC-2-ad	1.15	0.971	1.01	0.906	0.791	0.323	0.259	0.328	0.274	0.394	0.391	0.398	0.379	0.47	0.454	0.493	0.378	0.348
H3255	0.883	0.927	0.86	0.621	0.648	0.465	0.569	0.478	0.526	0.633	0.663	0.628	0.639	0.976	0.846	0.812	0.669	0.827
NCI-H2087	0.902	0.795	0.802	0.703	0.688	0.45	0.437	0.489	0.512	0.903	0.906	0.953	0.704	0.832	0.823	0.643	0.731	0.716
NCI-H1915	1.03	0.942	1.01	0.956	0.946	0.4	0.31	0.456	0.323	0.501	0.276	0.464	0.381	0.922	0.894	0.901	0.905	0.79
HOP-62	0.719	0.931	0.805	0.526	0.498	0.577	–	0.764	0.419	0.556	0.22	0.452	0.228	1.01	0.994	0.677	0.81	0.69

Source: the supplement of paper PMC10307832
